Reference: patent US5674840A, “Synthetic aglucodalbaheptide antibiotics” (Gruppo Lepetit SpA, priority 1993, dated 1997)

How the values were obtained:
Assay in all cases: in vitro antibacterial activity, MIC microdilution
[1] = system: Enterococcus faecalis ATCC 7,080 (L 149); format: cell-based; details: Mueller-Hinton broth, 0.01% bovine serum albumin, 37° C., 18-24 hours
Procedure: (§1) The in vitro antibacterial activity of the compounds is determined by means of standard […] tests in microtiter. Iso-Sensitest broth (Oxoid) is used for all bacteria except streptococci (Todd-Wewitt broth, Difco) and enterococci (Mueller-Hinton, Difco). Broth cultures are diluted so that the final inoculum was about 5×10^5 cfu/ml (colony forming units per ml). All broth microdilution MICs are performed in the presence of 0.01% bovine serum albumin (Pentax fraction V, Sigma).

[2] = system: S. epidermidis ATCC 12,228 (L 147); format: cell-based; details: Iso-Sensitest broth, 0.01% bovine serum albumin, 37° C., 18-24 hours
Procedure: as §1

[3] = system: S. epidermidis clin. isol. (L 533); format: cell-based; details: Iso-Sensitest broth, 0.01% bovine serum albumin, 37° C., 18-24 hours
Procedure: as §1

[4] = system: S. haemolyticus clin, isol. (L 602); format: cell-based; details: Iso-Sensitest broth, 0.01% bovine serum albumin, 37° C., 18-24 hours
Procedure: as §1

[5] = system: Staph. aurevi Tour (L 165); format: cell-based; details: Iso-Sensitest broth, 0.01% bovine serum albumin, 37° C., 18-24 hours
Procedure: as §1

[6] = system: Strep. pneumoniae UC41 (L 44); format: cell-based; details: Todd-Wewitt broth, 0.01% bovine serum albumin, 37° C., 18-24 hours
Procedure: as §1

[7] = system: s. aureus clin. isol. (L 561); format: cell-based; details: Iso-Sensitest broth, 0.01% bovine serum albumin, 37° C., 18-24 hours
Procedure: as §1

[8] = system: Strep. pyogenes C203 (L 49); format: cell-based; details: Todd-Wewitt broth, 0.01% bovine serum albumin, 37° C., 18-24 hours
Procedure: as §1, with “(Todd-[…]” for “(Todd-Wewitt”, “ml).” for “ml). All broth microdilution MICs are performed in the presence of 0.01% bovine serum albumin (Pentax fraction V, Sigma).”

s. aureus Smith (L 819) = format: cell-based; details: Iso-Sensitest broth, 0.01% bovine serum albumin, 37° C., 18-24 hours
Procedure: as §1, with “(Todd-[…]” for “(Todd-Wewitt”, “ml).” for “ml). All broth microdilution MICs are performed in the presence of 0.01% bovine serum albumin (Pentax fraction V, Sigma).”

[9] = system: E. faecalis clin. isol. (L 502); format: cell-based, Enterococcus faecalis; details: for MIC: E. faecalis clin. isol. (L 502), Mueller-Hinton broth, 0.01% bovine serum albumin, 37° C., 18-24 hours
Procedure: as §1

Molecule	MIC [1]	MIC [2]	MIC [3]	MIC [4]	MIC [5]	MIC [6]	MIC [7]	MIC [8]	MIC (s. aureus Smith (L 819))	MIC [9]	activity against a clinical isolate of Enterococcus faecalis (in words) ([9]; clinical isolate of Enterococcus faecalis)
N[C@H]1C(=O)N[C@@H]2Cc3ccc(c(Cl)c3)Oc3cc4cc(c3O)Oc3ccc(cc3Cl)[C@@H](O)[C@@H]3NC(=O)[C@H](NC(=O)[C@@H]4NC(=O)[C@@H](NC2=O)c2cc(O)cc(c2)Oc2cc1ccc2O)c1ccc(O)c(c1)-c1c(O)cc(O)cc1[C@@H](C(=O)O)NC3=O [teicoplanin aglycon]	0.13 mg/1	0.06 mg/1	0.016 mg/1	0.25 mg/1	0.13 mg/1	0.13 mg/1	0.13 mg/1	0.13 mg/1	0.06 mg/1	> 128 mg/1	–
(L-phenylalanyl)^3 -(D-lysyl)^15 -aglucoteicoplanin dalbaheptide methyl ester	0.5 mg/1	0.13 mg/1	0.13 mg/1	0.5 mg/1	0.13 mg/1	0.13 mg/1	0.06 mg/1	0.25 mg/1	0.13 mg/1	16 mg/1	surprisingly active
teicoplanin	0.13 mg/1	8 mg/1	8 mg/1	32 mg/1	0.13 mg/1	0.13 mg/1	8 mg/1	0.13 mg/1	0.25 mg/1	> 128 mg/1	–
